According to patent US20250099488A1, “ANTI-PARASITE COMPOUNDS” (AUSTRALIAN NATIONAL UNIVERSITY, priority 2022, published 2025):
“And” between values parts separate entries of the source, which are not always exact repeats. Equal entries are not always repeated. Where two headings read alike, the source gives them in different places.

How the values were obtained:
[1] = in vivo; cited from earlier work
[2] = tested on: P. falciparum CAM3.IIREV (susceptible); assay: Ring stage survival assay, susceptible revertant strain; format: cell-based, Plasmodium falciparum; details: 700 nM for six hours, then 66 hours without drug
Text: (§1) The inventors tested these compounds in a ring stage survival assay, which allows the detection of resistant parasites against this […] drug and is the standard method for investigating resistance to artemisinin and its derivatives (Witkowski B, Menard D, Amaratunga C. Fairhurst R. Ring-stage Survival Assays (RSA) to evaluate the in-vitro and ex-vivo susceptibility of Plasmodium falciparum to artemisinins Procedure. Inst Pasteur du Cambodge—Natl Institutes Heal [Internet]. 2013 Sep. 11 [cited 2022 Jun. 19]; Procedure; available from: https://www.wwarn.org/sites/default/files/INV10-Standard-Operating-Procedure-Ring-Stage-Survival-Assays.pdf). This assay involves a short treatment window against newly-invaded ring stage parasites, followed by removal of drug pressure to mimic the clearance of the drug from plasma. We utilised two parasite strains: an isolate from Cambodia (CAM3.II) with a mutated Kelch-13 conferring resistance, and a genetically modified revertant of this strain (CAM3.IIREV) conferring drug susceptibility (Straimer J, Gnädig N F, Witkowski B, Amaratunga C, Duru V, Ramadani A P, et al. K13-propeller mutations confer artemisinin resistance in Plasmodium falciparum clinical isolates. Science (80-) [Internet]. 2015 Jan. 23 [cited 2022 Jun. 19]; 347(6220):428-31; available from: https://www.science.org/doi/10.1126/science.1260867).
(§2) Following tight synchronisation, CAM3.II and CAM3.IIREV ring stage parasites (0-3 hours post invasion) at 1% parasitaemia and 2% haematocrit were incubated with 700 nM of compounds or solvent-only controls for exactly six hours, before removing the drug, thoroughly washing in RPMI, and returning to culture conditions for a further 66 hours. Some cells were treated with 700 nM artesunate for 72 hours as a no-growth control. DNA replication (indicating growth) was measured at the specified time using SYBR Safe DNA Gel Stain. Microscope slide smears of each condition were stained with 10% v/v Giemsa and examined under a light microscope (1 000× magnification); with ‘viable’ (morphologically normal) and ‘non-viable’ (morphologically aberrant; vacuolated or pyknotic) parasites distinguished according to standard protocol (Witkowski B, Menard D, Amaratunga C, Fairhurst R. Ring-stage Survival Assays (RSA) to evaluate the in-vitro and ex-vivo susceptibility of Plasmodium falciparum to artemisinins Procedure. Inst Pasteur du Cambodge—Natl Institutes Heal [Internet]. 2013 Sep. 11 [cited 2022 Jun. 19]; Procedure. Available from: https://www.wwam.org/sites/default/files/INV10-Standard-Operating-Procedure-Ring-Stage-Survival-Assays.pdf). Images were captured using a Leica ICC50 camera, with a resolution of 76 nm per pixel.

[3] = tested on: P. falciparum CAM3.II (mutated Kelch-13, resistant); assay: Ring stage survival assay, resistant strain; format: cell-based, Plasmodium falciparum; details: 700 nM for six hours, then 66 hours without drug
Text: as §1, §2

[4] = tested on: human foreskin fibroblasts (HFF); assay: HFF growth inhibition assay (SYBR Safe); format: cell-based
Procedure: Cells were incubated with a serial dilution of each compound, or media/DMSO alone. The protein synthesis inhibitor cycloheximide (10 μg/mL) was used as a positive control to determine background fluorescence. Approximately 5000 cells were seeded in each well. […] Plates were transferred to a −18° C. freezer. […] Fluorescence was read at 490 nm excitation/520 nm emission on a FLUOstar Optima fluorescence plate reader.
HFF cell growth inhibition assays began with 5000 cells per well. 10 μg/mL cycloheximide was used as a no-growth control.

[5] = tested on: human embryonic kidney cells (HEK293); assay: HEK293 cell viability assay (MTT); format: cell-based; details: 96 hours
Procedure: HEK293 cell viability assays began with 5000 cells per well. 10 μg/mL cycloheximide was used as a no-growth control. Metabolic capacity (indicating viability) was measured by incubation with 0.45 mg/mL methylthiazolyldiphenyl-tetrazolium bromide (MTT; Sigma M2128) for two hours followed by crystal solubilisation in SDS.

[6] = tested on: P. berghei liver stage schizonts; assay: P. berghei liver stage parasite size and number (fluorescence microscopy) in Huh7 cells; format: cell-based, Plasmodium berghei; details: for Smaller parasite size (reduction): 48 hours post-infection, vs DMSO
Procedure: (§3) Huh7 cells were seeded at a density of 10 000 cells per well, or 20 000 per collagen-coated coverslip. […] Uninfected wells served as a control for background luminescence. […] Data are presented as a percentage of the size or parasite number of the solvent control to normalize for differences between experiments. For cell images presented in the figure, images were collected under optimal exposure settings to ensure features were visible. Individual cells were cropped from larger images with Fiji ImageJ, and the brightness was adjusted while ensuring that no fluorescence was removed. No other manipulations were performed.

[7] = tested on: asexual P. falciparum; assay: Plasmodium growth inhibition assay (SYBR Safe), asexual stages; format: cell-based, Plasmodium falciparum; details: for IC90: read-out: IC90
Procedure: Compounds or solvent controls (DMSO, ethanol, or ethyl acetate) were serially diluted 2-fold across flat-bottom 96-well plates. Complete culture media without compound was used as a negative control. Chloroquine (100-200 nM) {Sigma C6628} was used as a positive control to determine background fluorescence. The parasitaemia of a culture containing predominantly ring stage parasites was counted by Giemsa smear. The parasitaemia was adjusted to 1% by addition of fresh uRBCs, and added to the plate at a final haematocrit of 1%, with 200 μL per well. The plates were incubated at 37° C. under humid microaerophilic conditions. […] Fluorescence was read at 490 nm excitation/520 nm emission on a FLUOstar Optima fluorescence plate reader {BMG Labtech}.
Growth inhibition data were normalised by subtracting background fluorescence from a no-growth control (high drug concentration or time=0 measurement as specified), and expressed as a percentage of the growth in the negative control (media alone or solvent control) either at the indicated timepoint, or to the highest measurement reached during the assay.
P. falciparum asexual parasite assays begun with ring-stage parasites at 1% parasitaemia and 1% haematocrit. 200 nM chloroquine (Sigma C6628) was used as a no-growth control. […] 17]; 8 (2):e54974).
(§4) Growth inhibition data were normalised by subtracting background fluorescence, luminescence, absorbance, or percentage of cells from a no-growth or no-viability control (high drug concentration, no-parasite control, or time=0 measurement as specified), and expressed as a percentage of the growth or cell percentage in the negative control (culture media alone or solvent control) at the indicated timepoint (or to the highest measurement reached during the assay for FIG. 15B).

[8] = tested on: P. berghei liver stages; assay: P. berghei liver stage growth assay (luciferase) in Huh7 cells; format: cell-based, Plasmodium berghei
Procedure: as §3, §4

[9] = tested on: Toxoplasma gondii tachyzoites; assay: Toxoplasma growth inhibition assay (tdTomato fluorescence); format: cell-based
Procedure: Fluorescent Toxoplasma gondii parasites were inoculated into an optical bottom 96-well plate containing confluent human foreskin fibroblast (HFF) host cells at a density of 2000 parasites/well, with a serial dilution of each compound, or media/DMSO alone. Plates were measured daily with a FluoStar Optima fluorescence plate reader at 540 nm excitation/590 nm emission for seven days, and the background fluorescence from the time 0 reading was subtracted from all other measurements.
Fluorescence was measured daily with a FluoStar Optima fluorescence plate reader for one week, and the background fluorescence from the time 0 reading was subtracted from all other measurements.
as §4

[10] = tested on: P. falciparum gametocytes (stage III-IV); assay: Gametocyte viability assay (MitoTracker, flow cytometry); format: cell-based, Plasmodium falciparum
Text: Gametocyte assays begun eight days post-invasion (Stage III-IV).
as §4

[11] = tested on: human hepatoma cells (Huh7); assay: Huh7 hepatoma viability assay (CellTiter-Blue); format: cell-based; details: 48 hours
Procedure: Huh7 hepatoma viability assays were conducted in the same manner as the P. berghei assays, with metabolic capacity (indicating viability) measured by incubation with CellTiter-Blue® (Promega) for 3 hours.

C[C@H]1[C@H](OC(=O)CCC(=O)O)O[C@@H]2O[C@@]3(C)CC[C@H]4[C@H](C)CC[C@@H]1[C@@]24OO3 [artesunate, reference compound]
Half-life in blood [1]: 30 to 90 min | Morphology in Giemsa-stained smears [2]: only morphologically aberrant parasites were present | Morphology in Giemsa-stained smears [3]: a combination of morphologically normal parasites and morphologically aberrant pyknotic or vacuolated forms | Parasite survival (DNA replication) ([3]; FIG. 17B): > 30% and ~30%

COc1cc(NC(C)CCCNC(=O)CCC(=O)O[C@H]2CC[C@H]3[C@@H]4CC=C5C[C@@H](O)CC[C@]5(C)[C@H]4CC[C@]23C)c2ncccc2c1 (stereo partly drawn) [C-17-prim, 3β-Hydroxyandrost-5-en-17β-yl succinate-primaquine amide]
Concentration with substantial effect on fibroblast growth ([4]; 72 hours): 10 µM | Maximal inhibition of HFF growth at the range of concentrations tested ([4]; 72 hrs): ≤ 30% | Concentration at which gradual cytotoxicity emerges [5]: 10 µM | Smaller parasite size (reduction) ([6]; 0.3 μM): 48% | Smaller parasite size (reduction) ([6]; 3 μM): 90% | Parasite number (per coverslip) ([6]; 0.3 or 3 μM, compared to the same concentration of primaquine or DMSO-only control): significantly lower | Fold lower IC50 than primaquine alone [7]: ~4 fold | Fold difference in IC90 vs primaquine ([7]; 24 hours): ~8 fold | Hill slope of inhibitory curve ([7]; 24 hours): −4.56 | Hill slope of inhibitory curve ([7]; 72 hours): −4.20 | IC50 ([7]; Plasmodium falciparum, 24 hours, starting with ring-stage parasites, FIG. 14B, read-out: IC50): 3.1 µM | IC90 ([7]; Plasmodium falciparum, 24 hours): 5 µM | IC90 ([7]; Plasmodium falciparum, 72 hours exposure time): 4 µM | Fold reduction in IC50 compared to primaquine alone ([8]; 48 hours): ~15 fold | IC50 ([8]; Plasmodium berghei, Huh-7, 48 hours of treatment from sporozoite inoculation, Huh7 cells, FIG. 16A): 200 nM | Fold lower IC50 than primaquine ([9]; 72 hours): ~3.5 fold | IC50 ([9]; Toxoplasma gondii, 72 h, read-out: IC5 against T. gondii): 2800 nM | Fold reduction in IC50 compared to primaquine alone ([10]; 48 hours): 9 fold | IC50 ([10]; Plasmodium falciparum, 48 h, read-out: IC50, gametocyte viability): 6.9 µM | Cell viability over the range of concentrations [11]: > 50% | Concentration at which cytotoxic effect was detected ([11]; effect on cellular integrity / modest cytotoxicity): 3 µM
